Laboratory results reported in US8927580B2, “Thiosemicarbazone compounds and use in the treatment of cancer” (Oncochel Therapeutics LLC, priority 2010, dated 2015).

Assays:
[1] = tested on: NDRG1; test: Western blot analysis, NDRG1 expression; assay type: cell-based; settings: MIAPaCa-2 cells
Protocol: (§1) Western analysis was performed via established protocols (Gao, J. and D. R. Richardson (2001). Blood 98: 842-50). The primary antibodies used were against NDRG1 (Abcam; UK), p21, cyclin D1, transferrin receptor 1 (TfR1; Santa Cruz, CA, USA) and β-actin (Sigma-Aldrich), with secondary HRP-conjugated goat and mouse antibodies (Sigma-Aldrich).
(§2) Dp4cycH4mT was examined to determine whether it could up-regulate NDRG-1 expression. To further evaluate the effect of the chelator Dp4cycH4mT on other key molecules involved in cell cycle progression, the expression of the cyclin-dependent kinase inhibitor, p21, as well as cyclin D1 in MIAPaCa-2 cells was also examined.

[2] = tested on: cyclin D1; test: Western blot analysis, cyclin D1 levels; assay type: cell-based; settings: MIAPaCa-2 cells
Protocol: as §1, §2

[3] = mouse, in vivo
[4] = tested on: p21; test: Western blot analysis, p21 expression; assay type: cell-based; settings: MIAPaCa-2 cells
Protocol: as §1, §2

[5] = tested on: DMS-53 human lung carcinoma; test: DMS-53 xenograft in nude mice, oral gavage: tumour growth; assay type: in vivo, nude mice (BALBc nu/nu); settings: 10 mg/kg, 21 days
[6] = DMS-53 xenograft i.v. study: body and organ weights, haematology, histology; assay type: in vivo, nude mice (BALBc nu/nu)
[7] = tested on: methemoglobin (metHb); test: metHb formation in vivo; parameters: species or system C57BL6 mice; settings: 6 mg/kg intravenously, blood taken after 30 min
Protocol: FIG. 13. Effect of thiosemicarbazone chelators on metHb-formation in vivo. MetHb after Dp44mT, Triapine® or Dp4cycH4mT treatment in vivo at a dose of 6 mg/kg administered intravenously via the tail vein. Mice in the control group were treated with vehicle alone. At 30 minutes post-administration, whole blood was collected for determination of metHb levels.
(§3) The levels of metHb and metMb in RBC lysates were determined using a Shimadzu UV-Vis spectrophotometer (UV-1800; Shimadzu Corporation, Kyoto, Japan) at 577 nm and 630 nm for metHb and metMb in accordance with published methods (Winterbourn CC and Carrell R W (1977). Biochem J 165: 141-148).
(§4) C57BL6 mice (7-8 weeks-old) were used under a protocol approved by the university of Sydney Animal Ethics Committee. Dp44mT, Triapine® or Dp4cycH4mT (all at 6 mg/kg) were dissolved in 30% propylene glycol/saline and administered iv via the tail vein. Subsequently, 30 min after administration, mice were anesthetized with isoflurane and blood samples obtained by cardiac puncture. Blood samples were lysed with 2.5 volumes of ultrapure water for metHb estimation. Mice were sacrificed with isoflurane, the heart exhaustively perfused with HBSS and Mb isolated.

[8] = tested on: PANC 1 human pancreatic carcinoma; test: PANC 1 xenograft in nude mice: tumour growth; assay type: in vivo, nude mice (BALBc nu/nu); settings: for average tumour size (% of the original tumour size): after 6 weeks; for final tumour weight: after 43 days
Protocol: FIG. 5). […] (5 mg/kg) or vehicle control.

[9] = tested on: metmyoglobin (metMb); test: metMb formation in vivo; parameters: species or system C57BL6 mice; settings: 6 mg/kg intravenously, 30 min post-administration, heart
Protocol: FIG. 14. Effect of thiosemicarbazone chelators on metMb-formation in vivo. MetMb levels after Dp44mT Triapine® or Dp4cycH4mT treatment in vivo at a dose of 6 mg/kg administered intravenously via the tail vein. Mice in the control group were treated with vehicle alone. At 30 min post-administration, whole hearts were collected for determination of metMb levels.
Mouse heart tissue was exhaustively perfused with ice-cold HBSS to remove blood and homogenized in ice-cold HBSS containing protease inhibitor cocktail (Roche, Basel, Switzerland). Heart homogenates were centrifuged (16,000×xg/45 min/4° C.) and the supernatant ([oxyMb]=50 μM) used immediately.
as §3, §4

[10] = tested on: DMS-53 human lung carcinoma; test: DMS-53 xenograft in nude mice, i.v. administration: tumour growth; assay type: in vivo, nude mice (BALBc nu/nu); settings: 0.75 mg/kg
[11] = DMS-53 xenograft oral study: body and organ weights, haematology, biochemistry, histology; assay type: in vivo, nude mice (BALBc nu/nu)
[12] = tested on: PANC 1 pancreatic cancer cells; test: MTT proliferation assay, PANC 1; assay type: cell-based; settings: Homo sapiens; PANC 1, MTT, 72 h
Protocol: (§5) The pancreatic cancer cell lines, including MIAPaCa-2, PANC 1, CAPAN-2 and CFPAC-1 were a generous gift from Prof. Andrew Biankin (Garvan Institute, NSW, Australia). The MIAPaCa-2, PANC 1 and CFPAC-1 cell lines were grown in DMEM medium (Invitrogen) and CAPAN-2 cells were grown in McCoy's medium (Invitrogen). All media was supplemented with 10% (v/v) fetal calf serum (Invitrogen), 1% (v/v) non-essential amino acids (Invitrogen), 1% (v/v) sodium pyruvate (Invitrogen), 2 mM L-glutamine (Invitrogen), 100 μg/mL of streptomycin (Invitrogen), 100 U/ml penicillin (Invitrogen), and 0.28 μg/mL of fungizone.
(§6) To further examine the spectrum of anti-proliferative activity, Dp4cycH4mT was tested against pancreatic cancer in vitro, performing MTT proliferation assays with PANC 1, MIAPaCa-2, CFPAC-1 and CAPAN-2 pancreatic cancer cells. As a comparison, currently used treatments for pancreatic cancer including gemcitabine and 5-fluorouracil were also tested. The iron chelator, DFO, was included as a positive control.
(§7) Table 2A. Anti-proliferative activity of Dp4cycH4mT against pancreatic cancer cell lines. Growth and antiproliferative activity IC50 (μM) values of Dp4cycH4mT in a variety of pancreatic cell lines and in comparison to DFO and the clinically used drugs gemcitabine and 5-fluorouracil as determined by the MTT assay. Cells were seeded and allowed to attach to wells for 24 h and then incubated for 72 h at 37° C. with control medium or the chelators. Results are mean±SD (3 experiments).
(§8) Table 2B. Anti-proliferative activity of Dp4cycH4mT against pancreatic cancer cell lines. IC90 (μM) values of Dp4cycH4mT in a variety of pancreatic cell lines and in comparison to DFO and the clinically used drugs gemcitabine and 5-fluorouracil as determined by the MTT assay. Cells were seeded and allowed to attach to wells for 24 h and then incubated for 72 h at 37° C. with control medium or the chelators. Results are mean±SD (3 experiments).

[13] = tested on: CAPAN-2 pancreatic cancer cells; test: MTT proliferation assay, CAPAN-2; assay type: cell-based; settings: Homo sapiens; CAPAN-2, MTT, 72 h
Protocol: as §5, §6, §7, §8

[14] = tested on: transferrin receptor 1 (TfR1); test: Western blot analysis, transferrin receptor 1 levels; assay type: cell-based; settings: MIAPaCa-2 cells
Protocol: as §1, §2

[15] = tested on: MIAPaCa-2 pancreatic cancer cells; test: MTT proliferation assay, MIAPaCa-2; assay type: cell-based; settings: Homo sapiens, MIA PaCa-2; MIAPaCa-2, MTT, 72 h
Protocol: as §5, §6, §7, §8

[16] = tested on: CFPAC-1 pancreatic cancer cells; test: MTT proliferation assay, CFPAC-1; assay type: cell-based; settings: Homo sapiens; CFPAC-1, MTT, 72 h
Protocol: as §5, §6, §7, §8

[17] = tested on: human RBCs (methemoglobin formation); assay type: cell-based; settings: 3 h, 25 μM
Protocol: FIG. 12. Effect of DFO and thiosemicarbazone chelators on metHb-formation in vitro. Whole RBCs were incubated with 1-25 μM chelator at 37° C. for 3 h. Cells were lysed with ultra-pure H2O and metHb levels were measured spectrophotometrically. Results are the mean±SD from 3 experiments.
Whole blood samples were collected from healthy human donors or mice in suitable blood collection tubes containing EDTA and used immediately. Red blood cells (RBCs) were isolated by centrifugation (480 xg/5 min/4° C.) then washed in Hank's balanced salt solution (HBSS). RBCs were resuspended 1:1 in HBSS and whole RBC assays were carried out at 37° C.
as §3
The effect of chelator concentration (1-25 μM) on metHb-generation with intact RBCs was assessed (FIG. 12). […] At 25 μM, these chelators increased metHb formation to 19.95±1.0 and 19.9±3.0% of total Hb, respectively (FIG. 12). The negative control chelator Dp2mT, by design, features a methyl group that hinders complex formation. Accordingly, this chelator cannot participate in the redox-interaction with iron that gives rise to metHb formation (FIG. 12).

[18] = gemcitabine 5 mg/kg intra-peritoneally every 3rd day

SMILES: CN(C)C(=S)NN=C(c1ccccn1)c1ccccn1 [Dp44mT, di-2-pyridylketone 4,4-dimethyl-3-thiosemicarbazone, reference compound]
- NDRG1 expression [1]: significantly (p<0.01) up-regulated
- cyclin D1 levels [2]: significantly (p<0.05) reduced
- KIDNEY Fe (score for presence of iron stained by Perl's stain) [3]: +/−
- SPLEEN HPC (score for the presence of haematopoietic cells in the splenic red pulp) [3]: N
- iron deposits in the kidney [3]: iron deposits were observed
- p21 expression [4]: markedly (p<0.05) increasing
- Tumour weight [5]: 0.46 ± 0.1 g
- histology of the liver, spleen, kidney, brain or tumour (H & E) vs control ([6]; 2 weeks i.v., Dp44mT 0.75 mg/kg, Dp4e4mT.HCl 4 and 6 mg/kg): no significant differences
- myocardial lesions (Gomori-Trichrome stain) ([6]; 2 weeks i.v., Dp44mT 0.75 mg/kg, Dp4e4mT.HCl 4 or 6 mg/kg): myocardial lesions were observed
- change in red blood cell count, haemoglobin or white blood cell count ([6]; after 2 weeks, Dp44mT 0.75 mg/kg, Dp4e4mT.HCl 1.5, 4 or 6 mg/kg i.v.): no significant change
- HCT ([6]; i.v., 0.75 mg, average): 0.43
- HGB ([6]; i.v., 0.75 mg, average): 135.50 g/L
- PLT ([6]; i.v., 0.75 mg, average): 1274.50 10 × 9 cells/L
- RBC ([6]; i.v., 0.75 mg, average): 9.87 10 × 12 cells/L
- WBC ([6]; i.v., 0.75 mg, average): 5.38 10 × 9 cells/L
- Body weight (% of initial weight) ([6]; i.v., 0.75 mg/kg): 91.01 ± 5.3 % initial weight
- Brain weight ([6]; i.v., 0.75 mg/kg): 0.32 ± 0.01 g
- Heart weight ([6]; i.v., 0.75 mg/kg): 0.11 ± 0.01 g
- Kidney weight ([6]; i.v., 0.75 mg/kg): 0.23 ± 0.01 g
- Liver weight ([6]; i.v., 0.75 mg/kg): 1.04 ± 0.05 g
- Spleen weight ([6]; i.v., 0.75 mg/kg): 0.13 ± 0.02 g
- weight loss (% of initial weight) ([6]; i.v., 0.75 mg/kg): 9%
- metHb (% of total Hb) [7]: 6.3±0.8 % of total Hb
- average tumour size (% of the original tumour size) ([8]; 0.4 mg/kg i.v. 5 days/week): 305%
- final tumour weight ([8]; 0.4 mg/kg i.v.): 122 ± 33 mg
- levels of metMb [9]: 82.3±2.6%
- Tumour weight [10]: 0.1 ± 0.02 g
- net tumour size (% of the initial tumour volume) ([10]; after 25 days): 122%
- myocardial lesions (Gomori-Trichrome stain) ([11]; Dp44mT 0.75 mg/kg, Dp4e4mT.HCl 3 weeks at 2.5, 5, 7.5 and 10 mg/kg oral): myocardial lesions were observed
- histology of the liver, spleen, kidney, brain or tumour (H & E) vs control ([11]; Dp44mT 2 weeks at 0.75 mg/kg, Dp4e4mT.HCl 3 weeks at 2.5, 5, 7.5 and 10 mg/kg oral): no significant differences
- Body weight (% initial) ([11]; oral, 10 mg/kg): 93.6 ± 1.8 % initial
- Brain weight ([11]; oral, 10 mg/kg): 0.363 ± 0.008 g
- Heart weight ([11]; oral, 10 mg/kg): 0.102 ± 0.005 g
- Kidney weight ([11]; oral, 10 mg/kg): 0.208 ± 0.004 g
- Liver weight ([11]; oral, 10 mg/kg): 0.88 ± 0.02 g
- Lung weight ([11]; oral, 10 mg/kg): 0.133 ± 0.008 g
- Spleen weight ([11]; oral, 10 mg/kg): 0.081 ± 0.005 g

SMILES: Nc1ccn([C@@H]2O[C@H](CO)[C@@H](O)C2(F)F)c(=O)n1 [Gemcitabine, gemcitabine]
- NDRG1 expression [1]: no marked effect
- IC50 [12]: 11 ± 0.8 µM
- IC90 [12]: > 5 µM
- IC50 [13]: 40.8 ± 4.7 µM
- IC90 [13]: > 5 µM
- cyclin D1 levels [2]: did not modulate
- KIDNEY Fe (score for presence of iron stained by Perl's stain) [3]: −
- LIVER HP (histopathological changes) [3]: N
- LUNG HP (histopathological changes) [3]: N
- MYOCARDIUM Fibrosis [3]: −
- MYOCARDIUM HP (histopathological changes) [3]: N
- SPLEEN HPC (score for the presence of haematopoietic cells in the splenic red pulp) [3]: N
- iron deposits in the kidney [3]: no evidence of iron deposits
- TfR1 levels [14]: did not modulate
- IC50 [15]: 0.02 ± 0.005 µM
- IC90 [15]: > 5 µM
- p21 expression [4]: did not modulate
- Tumour weight ([8]; Gemcitabine 5 mg/kg/day): 0.07 ± 0.02 g
- average tumour size (% of the original tumour size) [8, 18]: 319%
- final tumour weight [8, 18]: 67 ± 25 mg
- IC50 [16]: 0.02 ± 0.02 µM
- IC90 [16]: 30.4 ± 2.2 µM

SMILES: NC(=S)NN=Cc1ncccc1N [Triapine®, 3-aminopyridine-2-carboxaldehyde thiosemicarbazone]
- metHb formation (% of total Hb) [17]: 19.95±1.0 % of total Hb
- levels of metMb [9]: 75.2±4.2%
